Tests used:
R. palustris LCC (RpLCC) = assay: coupled ATPase assay; assay type: biochemical, Rhodopseudomonas palustris; conditions: 1.5 mM ATP, 40 mM KHCO3, 10 mM MgCl2, 200 mM KCl, 100 mM Hepes pH 7.5; 0.25 uM enzyme
[1] = molecular target: Mycobacterium avium subspecies paratuberculosis long-chain acyl-CoA carboxylase (Mycobacterium avium subspecies paratuberculosis); assay: crystal structure
[2] = molecular target: Mycobacterium avium subspecies paratuberculosis long-chain acyl-CoA carboxylase (Mycobacterium avium subspecies paratuberculosis); assay: crystal structure; remark: listed apart in the source
[3] = molecular target: Mycobacterium avium subspecies paratuberculosis long-chain acyl-CoA carboxylase (Mycobacterium avium subspecies paratuberculosis); assay: SEC
[4] = molecular target: Rhodopseudomonas palustris long-chain acyl-CoA carboxylase (Rhodopseudomonas palustris); assay: SEC

Which Km (R. palustris LCC (RpLCC)) does the source give for `CC(=O)SCCNC(=O)CCNC(=O)[C@H](O)C(C)(C)COP(=O)(O)OP(=O)(O)OC[C@H]1O[C@@H](n2cnc3c(N)ncnc32)[C@H](O)[C@@H]1OP(=O)(O)O` [Acetyl-CoA] here?
The Km was 2000 ± 300 µM.

How did the Km (R. palustris LCC (RpLCC)) turn out when `CCCC(=O)SCCNC(=O)CCNC(=O)[C@H](O)C(C)(C)COP(=O)(O)OP(=O)(O)OC[C@H]1O[C@@H](n2cnc3c(N)ncnc32)[C@H](O)[C@@H]1OP(=O)(O)O` [Butyryl-CoA] was run?
Its Km is 820 ± 160 µM.

How did the Km (R. palustris LCC (RpLCC)) turn out when `CCCCCCCCCC(=O)SCCNC(=O)CCNC(=O)[C@H](O)C(C)(C)COP(=O)(O)OP(=O)(O)OC[C@H]1O[C@@H](n2cnc3c(N)ncnc32)[C@H](O)[C@@H]1OP(=O)(O)O` [Decanoyl-CoA] was run?
Its Km is 33 ± 5 µM.

`CCCCCC(=O)SCCNC(=O)CCNC(=O)[C@H](O)C(C)(C)COP(=O)(O)OP(=O)(O)OC[C@H]1O[C@@H](n2cnc3c(N)ncnc32)[C@H](O)[C@@H]1OP(=O)(O)O` [Hexanoyl-CoA] was tested. Which Km (R. palustris LCC (RpLCC)) did it give?
Its Km is 200 ± 40 µM.

Which Km (R. palustris LCC (RpLCC)) does the source give for `CCCCCCCCCCCC(=O)SCCNC(=O)CCNC(=O)[C@H](O)C(C)(C)COP(=O)(O)OP(=O)(O)OC[C@H]1O[C@@H](n2cnc3c(N)ncnc32)[C@H](O)[C@@H]1OP(=O)(O)O` [Lauroyl-CoA] here?
The Km was 19 ± 3 µM.

Which Km (R. palustris LCC (RpLCC)) does the source give for `CCCCCCCCCCCCCC(=O)SCCNC(=O)CCNC(=O)[C@H](O)C(C)(C)COP(=O)(O)OP(=O)(O)OC[C@H]1O[C@@H](n2cnc3c(N)ncnc32)[C@H](O)[C@@H]1OP(=O)(O)O` [Myristoyl-CoA] here?
Its Km is 26 ± 2 µM.

With `CCCCCCCC(=O)SCCNC(=O)CCNC(=O)[C@H](O)C(C)(C)COP(=O)(O)OP(=O)(O)OC[C@H]1O[C@@H](n2cnc3c(N)ncnc32)[C@H](O)[C@@H]1OP(=O)(O)O` [Octanoyl-CoA] as the molecule, how does the Km (R. palustris LCC (RpLCC)) read?
Its Km is 370 ± 60 µM.

`CCCCCCCCCCCCCCCC(=O)SCCNC(=O)CCNC(=O)[C@H](O)C(C)(C)COP(=O)(O)OP(=O)(O)OC[C@H]1O[C@@H](n2cnc3c(N)ncnc32)[C@H](O)[C@@H]1OP(=O)(O)O` [Palmitoyl-CoA] was tested. Which Km (R. palustris LCC (RpLCC)) did it give?
Its Km is 5.8 ± 0.5 µM.

For `CCC(=O)SCCNC(=O)CCNC(=O)[C@H](O)C(C)(C)COP(=O)(O)OP(=O)(O)OC[C@H]1O[C@@H](n2cnc3c(N)ncnc32)[C@H](O)[C@@H]1OP(=O)(O)O` [Propionyl-CoA], which Km (R. palustris LCC (RpLCC)) is on record?
The Km was 2200 ± 500 µM.

What does the source list for “Mycobacterium avium subspecies paratuberculosis long-chain acyl-CoA carboxylase (enzyme)”?
stoichiometry N [1]: 6; stoichiometry N [2]: 6; stoichiometry N [3]: 6

How did the stoichiometry N [4] turn out when “Rhodopseudomonas palustris long-chain acyl-CoA carboxylase (enzyme)” was run?
Its stoichiometry N is 6.

From publication PMC4319993 (Nature, 2014)
